From publication PMC3835915, “Diversification of Fungal Specific Class A Glutathione Transferases in Saprotrophic Fungi” (PLoS ONE, 2013)
Read-outs that look alike come from different tables or passages of the source.

Legend:
PcGSTFuA3 [1] = tested on: T1, PcGSTFuA3; assay: GSH conjugation, absorbance […] nm; assay type: biochemical, Phanerodontia chrysosporium; conditions: 5 mM GSH; pH 6.5; 2% acetonitrile
T1 construct: gene GSTFuA3; full length, untagged, pET-3d, E. coli BL21(DE3) pSBET; Ala inserted after Met1; dimer; primers encode N-term MASLEPII, C-term EFVDV

CcGSTFuA6801 [2] = tested on: T2, CcGSTFuA6801; assay: GSH conjugation, absorbance […] nm; assay type: biochemical, Coprinopsis cinerea; conditions: 5 mM GSH; pH 6.5; 2% acetonitrile
T2 construct: gene GSTFuA6801; full length, untagged, pET-3d, E. coli BL21(DE3) pSBET; primers encode N-term MAITFYDI, C-term YHTVA

CcGSTFuA6820 = target: T3, CcGSTFuA6820; assay: inhibition of MUA esterase activity, fluorescence; assay type: biochemical, Coprinopsis cinerea; conditions: non-competitive vs MUA; no GSH; 30 mM Tris-HCl pH 8; 2 µM enzyme; read-out: PcGSTFuA4 / ANS
T3 construct: gene GSTFuA6820; full length, untagged, pET-3d, E. coli BL21(DE3) pSBET; primers encode N-term MAITLYDS, C-term YQAVH
From the text: inhibition of MUA esterase activity, fluorescence on CcGSTFuA6820

CcGSTFuA2461 = target: T4, CcGSTFuA2461; assay: inhibition of MUA esterase activity, fluorescence; assay type: biochemical, Coprinopsis cinerea; conditions: competitive vs MUA; no GSH; 30 mM Tris-HCl pH 8; 2 µM enzyme; read-out: PcGSTFuA1 / ANS
T4 construct: gene GSTFuA2461; full length, untagged, pET-3d, E. coli BL21(DE3) pSBET; primers encode N-term MAITFYDL, C-term TGSKL
From the text: inhibition of MUA esterase activity, fluorescence on CcGSTFuA2461

PcGSTFuA2 [3] = tested on: T5, PcGSTFuA2; assay: esterase activity, fluorescence; assay type: biochemical, Phanerodontia chrysosporium; conditions: no GSH; 30 mM Tris-HCl pH 8
T5 construct: gene GSTFuA2; full length, untagged, pET-3d, E. coli BL21(DE3) pSBET; Ala inserted after Met1; dimer; primers encode N-term MASQPIVF, C-term ERADD
From the text: esterase activity, fluorescence on PcGSTFuA2

CcGSTFuA6800 = tested on: T6, CcGSTFuA6800; assay: esterase activity, fluorescence; assay type: biochemical, Coprinopsis cinerea; conditions: no GSH
T6 construct: gene GSTFuA6800; full length, untagged, pET-3d, E. coli BL21(DE3) pSBET; primers encode N-term MAIILYDL, C-term YTTVV
From the text: esterase activity, fluorescence on CcGSTFuA6800

PcGSTFuA1 = target: T7, PcGSTFuA1 (Phanerodontia chrysosporium, UniProt I6ZUH3); assay: ANS displacement, fluorescence; assay type: binding
T7 construct: full length, untagged, pET-3d, E. coli BL21(DE3) pSBET; Ala inserted after Met1; dimer; primers encode N-term MAQPIVF, C-term EQVDV
From the text: ANS displacement, fluorescence on PcGSTFuA1

CcGSTFuA6801 [4] = target: T2, CcGSTFuA6801; assay: ANS displacement, fluorescence; assay type: binding, Coprinopsis cinerea; conditions: TE buffer pH 8.0; 3 µM enzyme; ANS probe; read-out: PcGSTFuA3 / ANS
From the text: ANS displacement, fluorescence on CcGSTFuA6801

PcGSTFuA4 = target: T8, PcGSTFuA4 (Phanerodontia chrysosporium, UniProt M1NR33); assay: ANS displacement, fluorescence; assay type: binding; conditions: TE buffer pH 8.0; 3 µM enzyme; ANS probe at L-site overlapping G-site
T8 construct: full length, untagged, pET-3d, E. coli BL21(DE3) pSBET; primers encode N-term MADVITLY, C-term AHVDL
From the text: ANS displacement, fluorescence on PcGSTFuA4

PcGSTFuA3 [5] = target: T1, PcGSTFuA3; assay: ANS displacement, fluorescence; assay type: binding, Phanerodontia chrysosporium; conditions: TE buffer pH 8.0; 3 µM enzyme; ANS probe at L-site overlapping G-site
From the text: ANS displacement, fluorescence on PcGSTFuA3

PcGSTFuA2 [6] = target: T5, PcGSTFuA2; assay: ANS displacement, fluorescence; assay type: binding, Phanerodontia chrysosporium; conditions: TE buffer pH 8.0; 3 µM enzyme; ANS probe at L-site overlapping G-site
From the text: ANS displacement, fluorescence on PcGSTFuA2

T8 sequence (M1NR33 entry or part of it): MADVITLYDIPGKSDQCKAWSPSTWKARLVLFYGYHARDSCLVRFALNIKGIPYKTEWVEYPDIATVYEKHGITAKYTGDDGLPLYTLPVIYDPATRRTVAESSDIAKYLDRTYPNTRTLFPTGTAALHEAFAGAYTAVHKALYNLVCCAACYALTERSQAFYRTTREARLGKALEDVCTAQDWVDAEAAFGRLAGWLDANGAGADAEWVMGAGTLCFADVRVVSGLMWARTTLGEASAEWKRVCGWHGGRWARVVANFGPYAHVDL
T7 sequence (I6ZUH3 entry or part of it): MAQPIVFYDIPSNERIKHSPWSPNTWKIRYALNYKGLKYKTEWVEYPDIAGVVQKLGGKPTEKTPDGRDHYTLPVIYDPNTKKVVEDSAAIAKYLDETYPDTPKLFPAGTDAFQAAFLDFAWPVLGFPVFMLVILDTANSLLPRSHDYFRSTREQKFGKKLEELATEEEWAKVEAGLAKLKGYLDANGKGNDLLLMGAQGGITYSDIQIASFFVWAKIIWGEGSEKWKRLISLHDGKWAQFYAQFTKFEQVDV

**Q.** S=C=NCCc1ccccc1 [phenethyl-ITC] was tested. Which Km (PcGSTFuA3 [1]) did it give?
**A.** 53.2 ± 5.37 µM

**Q.** What about the Km (CcGSTFuA6801 [2]) of the same compound?
**A.** 41.6 ± 3.73 µM

**Q.** For O=C(O)c1cc(O)c(O)c(O)c1 [Gallic acid], which Ki (CcGSTFuA6820) is on record?
**A.** 566 ± 16.5 µM

**Q.** And the Ki (CcGSTFuA2461)?
**A.** 114 ± 8.9 µM

**Q.** With CC(=O)Oc1ccc2c(C)cc(=O)oc2c1 [MUA] as the compound, how does the Km (PcGSTFuA2 [3]) read?
**A.** 23.5 ± 6.2 µM

**Q.** And the Km (CcGSTFuA6800; 30 mM Tris-HCl pH 8, read-out: PcGSTFUA2)?
**A.** 25.4 ± 4.37 µM

**Q.** How did the Km (CcGSTFuA6800; 50 mM phosphate pH 8.0, read-out: CcGSTFuA6800) turn out when CC(=O)Oc1ccc2c(c1)Oc1cc(OC(C)=O)ccc1C21OC(=O)c2cc(CCl)ccc21 [CMFDA] was run?
**A.** 0.153 ± 0.023 µM

**Q.** Which results are given for COc1cc(/C=C/C=O)ccc1O [Coniferaldehyde]?
**A.** IC50 (PcGSTFuA1): 62.3 ± 1.2 µM; IC50 (CcGSTFuA6801 [4]): 327 ± 50.6 µM; IC50 (PcGSTFuA4): 147 ± 5.1 µM; IC50 (PcGSTFuA3 [5]): 68.4 ± 25.3 µM

**Q.** How did the IC50 (PcGSTFuA2 [6]) turn out when COc1cc(C=O)ccc1O [Vanillin] was run?
**A.** 84.7 ± 5.2 µM

**Q.** How did the Ki (CcGSTFuA2461) turn out when O=C(O)c1ccc(Cl)c([N+](=O)[O-])c1 [4-chloro-3-nitrobenzoic acid] was run?
**A.** 287 ± 29.7 µM

**Q.** Which IC50 (PcGSTFuA1) does the source give for COc1cc(C=O)cc(OC)c1O [Syringaldehyde] here?
**A.** 62.5 ± 1.6 µM

**Q.** And the Ki (CcGSTFuA6820)?
**A.** 594 ± 37.6 µM

**Q.** What about the IC50 (PcGSTFuA2 [6]) of the same compound?
**A.** 89.3 ± 2.8 µM

**Q.** What about the IC50 (CcGSTFuA6801 [4]) of the same compound?
**A.** 276 ± 97.8 µM

**Q.** And the IC50 (PcGSTFuA4)?
**A.** 199 ± 25.2 µM

**Q.** What about the IC50 (PcGSTFuA3 [5]) of the same compound?
**A.** 37.2 ± 3.8 µM
